# Organism: Rattus norvegicus
# Assay: DrugMatrix - Regimen: Daily Repeat
# Type: toxicity, organism-based, Sprague-Dawley
# Design: regimen Daily Repeat, gender Male, age 6-8 weeks
# Settings: in vivo, po, route oral GAVAGE, vehicle 100 % WATER; for ABSOLUTE BASOPHIL / ABSOLUTE EOSINOPHIL / ABSOLUTE LYMPHOCYTE / ABSOLUTE MONOCYTE / ABSOLUTE SEGMENTED NEUTROPHIL / BASOPHIL / EOSINOPHIL / ERYTHROCYTE COUNT / HEMATOCRIT / HEMOGLOBIN / LEUKOCYTE COUNT / LYMPHOCYTE / MEAN CORPUSCULAR HEMOGLOBIN / MEAN CORPUSCULAR HEMOGLOBIN CONCENTRATION / MEAN CORPUSCULAR VOLUME / MONOCYTE / NEUTROPHIL / NUCLEATED RED BLOOD CELLS / PLATELET COUNT: tissue Blood; for ALANINE AMINOTRANSFERASE / ALBUMIN / ALKALINE PHOSPHATASE / ASPARTATE AMINOTRANSFERASE / BLOOD UREA NITROGEN / CARBON DIOXIDE / CHLORIDE / CHOLESTEROL / CREATINE PHOSPHOKINASE / CREATININE / GLUCOSE / LACTATE DEHYDROGENASE / LIPASE / PHOSPHORUS / POTASSIUM / SODIUM / TOTAL BILIRUBIN / TOTAL PROTEIN / URIC ACID: tissue Plasma
# [1] = 0 mg/kg, 72 h, dose level Control, time 3 day
# [2] = 0 mg/kg, 120 h, dose level Control, time 5 day
# [3] = 60 mg/kg, 72 h, dose level Low, time 3 day
# [4] = 60 mg/kg, 120 h, dose level Low, time 5 day
compound,measurement,setting,value
ClC(Cl)Cl [CHLOROFORM],ABSOLUTE BASOPHIL,[1],0 CELLS/uL
same,ABSOLUTE EOSINOPHIL,[1],86.33 CELLS/uL
same,ABSOLUTE LYMPHOCYTE,[1],12090.17 CELLS/uL
same,ABSOLUTE MONOCYTE,[1],166.67 CELLS/uL
same,ABSOLUTE SEGMENTED NEUTROPHIL,[1],1090.17 CELLS/uL
same,BASOPHIL,[1],0%
same,EOSINOPHIL,[1],0.67%
same,ERYTHROCYTE COUNT,[1],5.57 x10E6/uL
same,HEMATOCRIT,[1],35.33%
same,HEMOGLOBIN,[1],13.83 G/DL
same,LEUKOCYTE COUNT,[1],13.43 x10E3/uL
same,LYMPHOCYTE,[1],89.83%
same,MEAN CORPUSCULAR HEMOGLOBIN,[1],24.88 pg
same,MEAN CORPUSCULAR HEMOGLOBIN CONCENTRATION,[1],39.15 G/DL
same,MEAN CORPUSCULAR VOLUME,[1],63.52 fL
same,MONOCYTE,[1],1.17%
same,NEUTROPHIL,[1],8.33%
same,NUCLEATED RED BLOOD CELLS,[1],0 /100WBC
same,PLATELET COUNT,[1],1181.33 x10E3/uL
same,ALANINE AMINOTRANSFERASE,[1],48.33 u/L
same,ALBUMIN,[1],4.1 G/DL
same,ALKALINE PHOSPHATASE,[1],395 u/L
same,ASPARTATE AMINOTRANSFERASE,[1],81.83 u/L
same,BLOOD UREA NITROGEN,[1],15.83 mg/dL
same,CARBON DIOXIDE,[1],24.17 mmol/L
same,CHLORIDE,[1],103.83 MEQ/L
same,CHOLESTEROL,[1],63.67 mg/dL
same,CREATINE PHOSPHOKINASE,[1],372.83 u/L
same,CREATININE,[1],0.18 mg/dL
same,GLUCOSE,[1],173.83 mg/dL
same,LACTATE DEHYDROGENASE,[1],188.33 u/L
same,LIPASE,[1],9.5 u/L
same,PHOSPHORUS,[1],11.95 mg/dL
same,POTASSIUM,[1],5.99 MEQ/L
same,SODIUM,[1],144.43 MEQ/L
same,TOTAL BILIRUBIN,[1],0.15 mg/dL
same,TOTAL PROTEIN,[1],5.95 G/DL
same,URIC ACID,[1],1.82 mg/dL
same,ABSOLUTE BASOPHIL,[2],0 CELLS/uL
same,ABSOLUTE EOSINOPHIL,[2],26.67 CELLS/uL
same,ABSOLUTE LYMPHOCYTE,[2],7583.83 CELLS/uL
same,ABSOLUTE MONOCYTE,[2],131.33 CELLS/uL
same,ABSOLUTE SEGMENTED NEUTROPHIL,[2],674.83 CELLS/uL
same,BASOPHIL,[2],0%
same,EOSINOPHIL,[2],0.33%
same,ERYTHROCYTE COUNT,[2],5.78 x10E6/uL
same,HEMATOCRIT,[2],36.48%
same,HEMOGLOBIN,[2],14.03 G/DL
same,LEUKOCYTE COUNT,[2],8.42 x10E3/uL
same,LYMPHOCYTE,[2],89.83%
same,MEAN CORPUSCULAR HEMOGLOBIN,[2],24.3 pg
same,MEAN CORPUSCULAR HEMOGLOBIN CONCENTRATION,[2],38.52 G/DL
same,MEAN CORPUSCULAR VOLUME,[2],63.15 fL
same,MONOCYTE,[2],1.67%
same,NEUTROPHIL,[2],8.17%
same,NUCLEATED RED BLOOD CELLS,[2],0 /100WBC
same,PLATELET COUNT,[2],1186.67 x10E3/uL
same,ALANINE AMINOTRANSFERASE,[2],50.17 u/L
same,ALBUMIN,[2],4.07 G/DL
same,ALKALINE PHOSPHATASE,[2],367.5 u/L
same,ASPARTATE AMINOTRANSFERASE,[2],81.67 u/L
same,BLOOD UREA NITROGEN,[2],16.17 mg/dL
same,CARBON DIOXIDE,[2],32.33 mmol/L
same,CHLORIDE,[2],101.5 MEQ/L
same,CHOLESTEROL,[2],65.33 mg/dL
same,CREATINE PHOSPHOKINASE,[2],255.33 u/L
same,CREATININE,[2],0.17 mg/dL
same,GLUCOSE,[2],139.33 mg/dL
same,LACTATE DEHYDROGENASE,[2],95 u/L
same,LIPASE,[2],10.5 u/L
same,PHOSPHORUS,[2],10.38 mg/dL
same,POTASSIUM,[2],6.11 MEQ/L
same,SODIUM,[2],145.55 MEQ/L
same,TOTAL BILIRUBIN,[2],0.17 mg/dL
same,TOTAL PROTEIN,[2],5.98 G/DL
same,URIC ACID,[2],0.93 mg/dL
same,ABSOLUTE BASOPHIL,[3],0 CELLS/uL
same,ABSOLUTE EOSINOPHIL,[3],102.33 CELLS/uL
same,ABSOLUTE LYMPHOCYTE,[3],13682.67 CELLS/uL
same,ABSOLUTE MONOCYTE,[3],170.33 CELLS/uL
same,ABSOLUTE SEGMENTED NEUTROPHIL,[3],1778 CELLS/uL
same,BASOPHIL,[3],0%
same,EOSINOPHIL,[3],0.67%
same,ERYTHROCYTE COUNT,[3],5.57 x10E6/uL
same,HEMATOCRIT,[3],35.2%
same,HEMOGLOBIN,[3],13.87 G/DL
same,LEUKOCYTE COUNT,[3],15.73 x10E3/uL
same,LYMPHOCYTE,[3],86.67%
same,MEAN CORPUSCULAR HEMOGLOBIN,[3],24.87 pg
same,MEAN CORPUSCULAR HEMOGLOBIN CONCENTRATION,[3],39.37 G/DL
same,MEAN CORPUSCULAR VOLUME,[3],63.2 fL
same,MONOCYTE,[3],1%
same,NEUTROPHIL,[3],11.67%
same,NUCLEATED RED BLOOD CELLS,[3],0 /100WBC
same,PLATELET COUNT,[3],1237 x10E3/uL
same,ALANINE AMINOTRANSFERASE,[3],53 u/L
same,ALBUMIN,[3],3.97 G/DL
same,ALKALINE PHOSPHATASE,[3],363.67 u/L
same,ASPARTATE AMINOTRANSFERASE,[3],98.67 u/L
same,BLOOD UREA NITROGEN,[3],15.33 mg/dL
same,CARBON DIOXIDE,[3],23.33 mmol/L
same,CHLORIDE,[3],103.33 MEQ/L
same,CHOLESTEROL,[3],70.67 mg/dL
same,CREATINE PHOSPHOKINASE,[3],579.33 u/L
same,CREATININE,[3],0.13 mg/dL
same,GLUCOSE,[3],155.67 mg/dL
same,LACTATE DEHYDROGENASE,[3],507.67 u/L
same,LIPASE,[3],9 u/L
same,PHOSPHORUS,[3],12.8 mg/dL
same,POTASSIUM,[3],5.78 MEQ/L
same,SODIUM,[3],143.9 MEQ/L
same,TOTAL BILIRUBIN,[3],0.2 mg/dL
same,TOTAL PROTEIN,[3],5.67 G/DL
same,URIC ACID,[3],1.83 mg/dL
same,ABSOLUTE BASOPHIL,[4],0 CELLS/uL
same,ABSOLUTE EOSINOPHIL,[4],47.67 CELLS/uL
same,ABSOLUTE LYMPHOCYTE,[4],10405 CELLS/uL
same,ABSOLUTE MONOCYTE,[4],114.67 CELLS/uL
same,ABSOLUTE SEGMENTED NEUTROPHIL,[4],899.33 CELLS/uL
same,BASOPHIL,[4],0%
same,EOSINOPHIL,[4],0.33%
same,ERYTHROCYTE COUNT,[4],6.07 x10E6/uL
same,HEMATOCRIT,[4],37.63%
same,HEMOGLOBIN,[4],14.23 G/DL
same,LEUKOCYTE COUNT,[4],11.47 x10E3/uL
same,LYMPHOCYTE,[4],90%
same,MEAN CORPUSCULAR HEMOGLOBIN,[4],23.5 pg
same,MEAN CORPUSCULAR HEMOGLOBIN CONCENTRATION,[4],37.87 G/DL
same,MEAN CORPUSCULAR VOLUME,[4],62.07 fL
same,MONOCYTE,[4],1%
same,NEUTROPHIL,[4],8.67%
same,NUCLEATED RED BLOOD CELLS,[4],0 /100WBC
same,PLATELET COUNT,[4],1244.67 x10E3/uL
same,ALANINE AMINOTRANSFERASE,[4],54.33 u/L
same,ALBUMIN,[4],4.27 G/DL
same,ALKALINE PHOSPHATASE,[4],299.67 u/L
same,ASPARTATE AMINOTRANSFERASE,[4],84.33 u/L
same,BLOOD UREA NITROGEN,[4],16 mg/dL
same,CARBON DIOXIDE,[4],30.67 mmol/L
same,CHLORIDE,[4],102 MEQ/L
same,CHOLESTEROL,[4],59.67 mg/dL
same,CREATINE PHOSPHOKINASE,[4],401 u/L
same,CREATININE,[4],0.22 mg/dL
same,GLUCOSE,[4],139.33 mg/dL
same,LACTATE DEHYDROGENASE,[4],140 u/L
same,LIPASE,[4],10 u/L
same,PHOSPHORUS,[4],10.83 mg/dL

# — ChEMBL document CHEMBL3885881, “DrugMatrix”
